{"source": "patent US20230227406A1", "about": "“MODULATORS OF E3 LIGASES” (Rekindle Therapeutics Inc., priority 2020, published 2023)", "key": {"PD-L1 [1]": {"system": "PD-L1", "test": "Western blot of PD-L1 in BT-20 cells", "type": "cell-based, human", "conditions": "indicated doses", "excerpt": "(§1) The data presented here are consistent with the previous replicate in Hs578T cells, and the observation is preserved in another TNBC cell line, BT-20. COMPOUND 1 increases PD-L1 levels and the glycosylated PD-L1/non-glycosylated PD-L1 ratio. Methods are the same as the previous replicate, using the indicated doses.\nThe data presented here are consistent with the previous replicate in Hs578T cells. COMPOUND 6 reduces the PD-L1/vinculin loading control ratio in BT-20 cells. […] Methods are the same as the previous replicate, using the indicated doses."}, "PD-L1 [2]": {"system": "PD-L1", "test": "Western blot of PD-L1 in Hs578T cells", "type": "cell-based, human", "conditions": "48 hours, indicated concentrations of compound", "method": "Hs578T cells (human triple negative breast cancer) were treated with the indicated concentration of COMPOUND 1 for 48 hours prior to harvesting. The “0” concentration is DMSO only (0.5%, same as was used for compound doses). […] Analysis occurred via western blot using the indicated antibodies. Quantification by densitometry of the bands from the western blot are presented for PD-L1/Vinculin (loading control) in the absence of interferon gamma, and glycosylated/non-glycosylated PD-L1 in the presence of interferon gamma.\nas §1\nHs578T cells (human triple negative breast cancer) were treated with the indicated concentration of COMPOUND 6 for 48 hours before harvesting. The “0” concentration is DMSO only (0.5%, same as was used for compound doses). […] Analysis occurred via western blot using the indicated antibodies. PD-L1 protein levels were reduced relative to the vinculin loading control upon compound treatment. This effect is observed in the presence and absence of interferon gamma (IFN, 25 ng/mL in cell culture media during the drug treatment).\nHs578T cells (human triple negative breast cancer) were treated with the indicated concentration of COMPOUND 7 for 48 hours prior to harvesting. The “0” concentration is DMSO only (0.5%, same as was used for compound doses). […] Analysis occurred via western blot using the indicated antibodies. PD-L1 protein levels were reduced relative to the vinculin loading control upon 319-02 treatment.\nThe data presented here are consistent with the previous replicate in Hs578T cells. COMPOUND 7 reduces the PD-L1/vinculin loading control ratio. Methods are the same as the previous replicate, using the indicated doses.\nHs578T cells (human triple negative breast cancer) were treated with the indicated concentration of COMPOUND 8 for 48 hours and then harvested. The “0” concentration is DMSO only (0.5%, same as was used for compound doses). […] Analysis occurred via western blot using the indicated antibodies.\nPD-L1-APC (BD Biosciences) and a matched isotype control were used to visualize PD-L1 cell surface expression by flow cytometry (1:250 dilution). As shown by western blot, the knockdown of WWP1 yielded increased PD-L1 protein levels, including an increase in the glycosylated band.\nTotal RNA was isolated using an RNeasy kit from Qiagen."}, "[3]": {"system": "phosphorylated AKT and phosphorylated Ribosomal Protein S6", "test": "Western blot of AKT and S6 phosphorylation in BT-20 cells", "type": "cell-based, human", "conditions": "indicated doses", "excerpt": "as §1, with “reduces the phospho-AKT/vinculin loading control” for “increases PD-L1 levels”, “phospho-S6/total S6 ratios.” for “the glycosylated PD-L1/non-glycosylated PD-L1 ratio.”\nThe data presented here are consistent with the previous replicate in Hs578T cells. COMPOUND 6 reduces the phospho-AKT/vinculin loading control and phospho-S6/total S6 ratios in BT-20 cells. Methods are the same as the previous replicate, using the indicated doses."}, "WWP1": {"biological_target": "T1, WWP1 (Homo sapiens, UniProt Q9H0M0)", "T1 construct": "purchased Ubiquigent 63-0034-025/30033/D", "T1 sequence (Q9H0M0 whole entry)": "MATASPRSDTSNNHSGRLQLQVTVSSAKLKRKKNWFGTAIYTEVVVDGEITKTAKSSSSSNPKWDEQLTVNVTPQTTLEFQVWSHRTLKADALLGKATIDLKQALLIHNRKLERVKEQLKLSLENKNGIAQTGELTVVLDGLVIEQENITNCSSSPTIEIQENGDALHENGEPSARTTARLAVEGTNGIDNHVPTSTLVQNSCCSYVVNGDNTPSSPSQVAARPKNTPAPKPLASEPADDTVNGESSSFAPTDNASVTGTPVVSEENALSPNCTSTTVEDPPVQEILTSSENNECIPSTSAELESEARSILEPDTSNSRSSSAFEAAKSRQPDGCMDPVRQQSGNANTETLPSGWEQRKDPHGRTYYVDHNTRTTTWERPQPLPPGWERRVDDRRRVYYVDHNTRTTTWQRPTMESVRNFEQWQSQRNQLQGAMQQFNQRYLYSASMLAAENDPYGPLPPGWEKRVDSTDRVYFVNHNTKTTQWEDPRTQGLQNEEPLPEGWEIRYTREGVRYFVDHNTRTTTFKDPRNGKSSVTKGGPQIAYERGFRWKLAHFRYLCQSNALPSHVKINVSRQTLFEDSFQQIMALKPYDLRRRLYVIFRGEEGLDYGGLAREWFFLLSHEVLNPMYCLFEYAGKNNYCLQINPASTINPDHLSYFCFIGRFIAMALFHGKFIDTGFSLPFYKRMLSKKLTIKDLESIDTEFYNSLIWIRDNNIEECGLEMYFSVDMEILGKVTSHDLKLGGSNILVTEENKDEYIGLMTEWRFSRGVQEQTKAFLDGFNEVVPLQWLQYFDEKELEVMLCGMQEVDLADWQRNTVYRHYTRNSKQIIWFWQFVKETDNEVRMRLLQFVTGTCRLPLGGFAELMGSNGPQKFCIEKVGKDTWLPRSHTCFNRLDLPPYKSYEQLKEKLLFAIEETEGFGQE", "test": "In vitro WWP1-dependent ubiquitination of PTEN, western blot and LC-MS/MS", "type": "biochemical", "conditions": "2 hours, indicated doses of inhibitor", "method": "In vitro ubiquitination reactions were carried out for 2 hours using the indicated doses of inhibitor. Increasing doses of inhibitor block PTEN substrate ubiquitination, which correlates with remaining free ubiquitin. The “0” concentration is DMSO only (0.5%, same as was used for compound doses). No E1 and No E3 negative controls are present (only free ubiquitin present). Analysis occurred by western blot using an anti-ubiquitin antibody. A fraction of these samples was digested with Trypsin/LysC and labeled with TMT quantification reagents prior to LC-MS/MS analysis.\nIn vitro ubiquitination reactions were carried out for 2 hours using the indicated doses of inhibitor. Increasing doses of inhibitor block PTEN substrate ubiquitination, which correlates with remaining free ubiquitin. The “0” concentration is DMSO only (0.5%, same as was used for compound doses). No E1 and No E3 negative controls are present (only free ubiquitin present). Analysis occurred by western blot using an anti-ubiquitin antibody."}}}
{"smiles": "C#Cc1ccc2c(C=O)cn(-c3ccccc3)c2c1", "note": "[Compound 1, 6-ethynyl-1-phenyl-1H-indole-3-carbaldehyde]", "values": [{"measurement": "PD-L1 glycosylation (glycosylated/non-glycosylated PD-L1 ratio)", "setting": "PD-L1 [1]", "result": "increases"}, {"measurement": "PD-L1 levels (PD-L1/vinculin loading control ratio)", "setting": "PD-L1 [1]", "result": "increases"}, {"measurement": "PD-L1 glycosylation (glycosylated/non-glycosylated PD-L1 ratio)", "setting": "PD-L1 [2]", "result": "increases"}, {"measurement": "PD-L1 levels (relative to vinculin loading control)", "setting": "PD-L1 [2]", "result": "increases"}, {"measurement": "phospho-AKT/vinculin loading control ratio", "setting": "[3]", "result": "reduces"}, {"measurement": "phospho-S6/total S6 ratio", "setting": "[3]", "result": "reduces"}]}
{"smiles": "C#CCNC(=O)c1ccc2c(Cc3c[nH]c4ccccc34)c[nH]c2c1", "note": "[Compound 6, 3-((1H-indol-3-yl)methyl)-N-(prop-2-yn-1-yl)-1H-indole-6-carboxamide]", "values": [{"measurement": "PD-L1 glycosylation (glycosylated/non-glycosylated PD-L1 ratio)", "setting": "PD-L1 [1]", "result": "probably reduces"}, {"measurement": "PD-L1 levels (PD-L1/vinculin loading control ratio)", "setting": "PD-L1 [1]", "result": "reduces"}, {"measurement": "PD-L1 levels (relative to vinculin loading control)", "setting": "PD-L1 [2]", "result": "reduced"}, {"measurement": "phospho-AKT/vinculin loading control ratio", "setting": "[3]", "result": "reduces"}, {"measurement": "phospho-S6/total S6 ratio", "setting": "[3]", "result": "reduces"}]}
{"smiles": "C#CCN(CCO)C(=O)c1ccc2c(Cc3c[nH]c4ccccc34)c[nH]c2c1", "note": "[Compound 7, 3-((1H-indol-3-yl)methyl)-N-(2-hydroxyethyl)-N-(prop-2-yn-1-yl)-1H-indole-6-carboxamide]", "values": [{"measurement": "WWP1 dependent ubiquitination of PTEN (western blot, anti-ubiquitin)", "setting": "WWP1", "result": "Inhibits WWP1-Dependent Ubiquitination of PTEN, in a Dose-Dependent Manner"}, {"measurement": "PD-L1 levels (relative to vinculin loading control)", "setting": "PD-L1 [2]", "result": "reduces"}]}
